Measurements taken from ChEMBL document CHEMBL5653615 (J Biol Chem, 2013).

Experiments:
[1] = target: Activated CDC42 kinase 1 (Homo sapiens) (UniProt Q07912); assay: Inhibition of human ACK1 at 500 nM by HotSpot assay relative to control
[2] = target: T1, Cytoplasmic tyrosine-protein kinase BMX (Homo sapiens) (UniProt P51813); assay: Inhibition of human BMX at 500 nM by HotSpot assay relative to control
T1 sequence (whole entry): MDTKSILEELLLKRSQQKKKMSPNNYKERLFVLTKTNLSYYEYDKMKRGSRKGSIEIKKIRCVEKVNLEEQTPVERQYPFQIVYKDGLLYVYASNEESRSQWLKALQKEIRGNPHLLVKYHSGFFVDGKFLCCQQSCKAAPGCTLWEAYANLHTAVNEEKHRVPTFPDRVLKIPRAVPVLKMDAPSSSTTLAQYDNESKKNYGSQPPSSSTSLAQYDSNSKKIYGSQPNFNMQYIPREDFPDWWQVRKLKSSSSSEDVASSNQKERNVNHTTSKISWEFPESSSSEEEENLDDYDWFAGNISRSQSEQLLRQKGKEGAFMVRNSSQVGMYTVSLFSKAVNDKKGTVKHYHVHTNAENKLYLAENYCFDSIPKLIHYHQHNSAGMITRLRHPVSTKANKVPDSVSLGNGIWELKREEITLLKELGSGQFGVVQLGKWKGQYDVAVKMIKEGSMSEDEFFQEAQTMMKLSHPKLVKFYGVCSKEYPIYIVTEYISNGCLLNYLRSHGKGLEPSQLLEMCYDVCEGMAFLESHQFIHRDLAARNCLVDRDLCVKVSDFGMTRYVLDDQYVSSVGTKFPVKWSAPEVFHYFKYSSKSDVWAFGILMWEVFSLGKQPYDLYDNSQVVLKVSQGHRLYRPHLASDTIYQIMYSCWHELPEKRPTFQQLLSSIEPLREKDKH

[3] = target: Cyclin-dependent kinase 4/cyclin D1 (Homo sapiens) (UniProt P11802+P24385); assay: Inhibition of human CDK4/cyclin D1 at 500 nM by HotSpot assay relative to control; assay type: protein-complex assay
[4] = target: Ephrin type-A receptor 2 (Homo sapiens) (UniProt P29317); assay: Inhibition of human EPHA2 at 500 nM by HotSpot assay relative to control
Chain of Ephrin type-A receptor 2 (Homo sapiens) (P29317 whole entry): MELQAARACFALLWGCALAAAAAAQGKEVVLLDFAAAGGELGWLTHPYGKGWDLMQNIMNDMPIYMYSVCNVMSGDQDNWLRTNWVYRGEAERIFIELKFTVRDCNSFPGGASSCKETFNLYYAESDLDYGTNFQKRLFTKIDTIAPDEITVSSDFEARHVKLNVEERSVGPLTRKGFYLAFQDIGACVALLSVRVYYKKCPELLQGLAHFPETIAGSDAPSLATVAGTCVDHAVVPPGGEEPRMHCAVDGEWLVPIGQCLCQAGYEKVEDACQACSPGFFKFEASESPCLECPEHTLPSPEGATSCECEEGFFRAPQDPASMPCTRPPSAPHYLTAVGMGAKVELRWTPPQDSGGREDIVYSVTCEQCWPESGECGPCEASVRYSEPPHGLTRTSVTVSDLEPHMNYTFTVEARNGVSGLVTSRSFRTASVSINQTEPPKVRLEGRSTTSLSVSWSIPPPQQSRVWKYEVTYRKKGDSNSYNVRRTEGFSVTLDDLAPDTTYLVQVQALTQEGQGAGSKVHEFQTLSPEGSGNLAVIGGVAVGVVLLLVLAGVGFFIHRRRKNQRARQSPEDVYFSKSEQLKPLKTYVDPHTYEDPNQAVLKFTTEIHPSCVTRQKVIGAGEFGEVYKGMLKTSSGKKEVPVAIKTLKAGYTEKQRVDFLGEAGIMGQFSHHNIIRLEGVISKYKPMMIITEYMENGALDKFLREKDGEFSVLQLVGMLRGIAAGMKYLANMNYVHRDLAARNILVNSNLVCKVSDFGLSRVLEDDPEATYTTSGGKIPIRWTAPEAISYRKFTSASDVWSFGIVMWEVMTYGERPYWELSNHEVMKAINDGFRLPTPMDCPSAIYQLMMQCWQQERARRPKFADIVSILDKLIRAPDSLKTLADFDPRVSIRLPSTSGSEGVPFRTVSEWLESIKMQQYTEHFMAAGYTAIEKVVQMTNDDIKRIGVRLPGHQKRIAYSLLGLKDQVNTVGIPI

[5] = target: Tyrosine-protein kinase Lck (Homo sapiens) (UniProt P06239); assay: Inhibition of human LCK at 500 nM by HotSpot assay relative to control
[6] = target: Serine/threonine-protein kinase 24 (Homo sapiens) (UniProt Q9Y6E0); assay: Inhibition of human STK24 at 500 nM by HotSpot assay relative to control
Chain of Serine/threonine-protein kinase 24 (Homo sapiens) (Q9Y6E0 whole entry, looked up): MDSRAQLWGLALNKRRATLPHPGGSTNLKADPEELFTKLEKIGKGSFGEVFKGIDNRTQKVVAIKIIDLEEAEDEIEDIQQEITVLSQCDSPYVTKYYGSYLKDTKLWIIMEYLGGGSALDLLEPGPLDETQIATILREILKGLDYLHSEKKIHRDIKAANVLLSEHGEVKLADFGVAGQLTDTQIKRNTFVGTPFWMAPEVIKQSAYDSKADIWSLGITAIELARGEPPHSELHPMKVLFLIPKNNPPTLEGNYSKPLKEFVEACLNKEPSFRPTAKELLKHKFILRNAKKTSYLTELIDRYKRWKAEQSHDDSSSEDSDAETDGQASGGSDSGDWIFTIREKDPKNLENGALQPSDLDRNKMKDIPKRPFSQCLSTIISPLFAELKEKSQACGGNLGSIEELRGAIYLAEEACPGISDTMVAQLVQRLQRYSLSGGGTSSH

[7] = target: T2, Serine/threonine-protein kinase Nek2 (Homo sapiens) (UniProt P51955); assay: Inhibition of human NEK2 at 500 nM by HotSpot assay relative to control
T2 sequence (whole entry): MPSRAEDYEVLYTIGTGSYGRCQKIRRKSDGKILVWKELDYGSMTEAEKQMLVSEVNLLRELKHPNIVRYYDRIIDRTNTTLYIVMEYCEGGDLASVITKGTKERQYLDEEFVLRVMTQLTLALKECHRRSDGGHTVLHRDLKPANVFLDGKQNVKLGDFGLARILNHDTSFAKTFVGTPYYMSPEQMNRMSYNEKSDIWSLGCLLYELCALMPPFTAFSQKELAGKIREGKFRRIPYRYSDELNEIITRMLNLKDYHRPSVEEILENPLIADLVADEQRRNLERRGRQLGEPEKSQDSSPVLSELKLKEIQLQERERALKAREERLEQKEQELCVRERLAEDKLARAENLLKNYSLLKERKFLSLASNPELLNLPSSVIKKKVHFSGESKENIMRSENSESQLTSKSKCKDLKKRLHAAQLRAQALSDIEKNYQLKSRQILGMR

[8] = target: Serine/threonine-protein kinase PAK 1 (Homo sapiens) (UniProt Q13153); assay: Inhibition of human PAK1 at 500 nM by HotSpot assay relative to control
Chain of Serine/threonine-protein kinase PAK 1 (Homo sapiens) (Q13153 whole entry): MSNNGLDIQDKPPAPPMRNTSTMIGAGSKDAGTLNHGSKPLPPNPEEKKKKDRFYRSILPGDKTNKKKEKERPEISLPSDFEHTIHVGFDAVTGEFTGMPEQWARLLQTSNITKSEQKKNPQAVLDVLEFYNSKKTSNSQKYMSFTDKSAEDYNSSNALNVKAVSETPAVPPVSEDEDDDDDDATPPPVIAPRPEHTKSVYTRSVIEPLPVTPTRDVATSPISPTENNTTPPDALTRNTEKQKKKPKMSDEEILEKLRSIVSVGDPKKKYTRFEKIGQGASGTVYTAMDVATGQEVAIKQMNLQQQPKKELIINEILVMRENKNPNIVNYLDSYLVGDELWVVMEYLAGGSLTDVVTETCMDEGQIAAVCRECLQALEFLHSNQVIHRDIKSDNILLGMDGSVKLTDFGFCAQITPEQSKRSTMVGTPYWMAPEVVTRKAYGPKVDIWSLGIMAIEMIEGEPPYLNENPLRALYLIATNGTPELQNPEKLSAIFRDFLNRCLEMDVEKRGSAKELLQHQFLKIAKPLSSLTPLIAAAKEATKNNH

[9] = target: Serine/threonine-protein kinase pim-1 (Homo sapiens) (UniProt P11309); assay: Inhibition of human PIM1 at 500 nM by HotSpot assay relative to control
Chain of Serine/threonine-protein kinase pim-1 (Homo sapiens) (P11309 whole entry, looked up): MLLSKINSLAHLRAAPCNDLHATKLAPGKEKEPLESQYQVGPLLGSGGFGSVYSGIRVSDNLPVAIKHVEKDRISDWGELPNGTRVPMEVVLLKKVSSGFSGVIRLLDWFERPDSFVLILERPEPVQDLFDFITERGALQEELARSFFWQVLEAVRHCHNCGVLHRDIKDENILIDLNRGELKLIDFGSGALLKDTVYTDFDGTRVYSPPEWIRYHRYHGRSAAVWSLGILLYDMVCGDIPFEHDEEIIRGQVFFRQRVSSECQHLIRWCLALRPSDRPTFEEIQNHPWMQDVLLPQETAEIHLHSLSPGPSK

[10] = target: Serine/threonine-protein kinase N1 (Homo sapiens) (UniProt Q16512); assay: Inhibition of human PRK1 at 500 nM by HotSpot assay relative to control
[11] = target: Rho-associated protein kinase 2 (Homo sapiens) (UniProt O75116); assay: Inhibition of human ROCK2 at 500 nM by HotSpot assay relative to control
Chain of Rho-associated protein kinase 2 (Homo sapiens) (O75116 whole entry, looked up): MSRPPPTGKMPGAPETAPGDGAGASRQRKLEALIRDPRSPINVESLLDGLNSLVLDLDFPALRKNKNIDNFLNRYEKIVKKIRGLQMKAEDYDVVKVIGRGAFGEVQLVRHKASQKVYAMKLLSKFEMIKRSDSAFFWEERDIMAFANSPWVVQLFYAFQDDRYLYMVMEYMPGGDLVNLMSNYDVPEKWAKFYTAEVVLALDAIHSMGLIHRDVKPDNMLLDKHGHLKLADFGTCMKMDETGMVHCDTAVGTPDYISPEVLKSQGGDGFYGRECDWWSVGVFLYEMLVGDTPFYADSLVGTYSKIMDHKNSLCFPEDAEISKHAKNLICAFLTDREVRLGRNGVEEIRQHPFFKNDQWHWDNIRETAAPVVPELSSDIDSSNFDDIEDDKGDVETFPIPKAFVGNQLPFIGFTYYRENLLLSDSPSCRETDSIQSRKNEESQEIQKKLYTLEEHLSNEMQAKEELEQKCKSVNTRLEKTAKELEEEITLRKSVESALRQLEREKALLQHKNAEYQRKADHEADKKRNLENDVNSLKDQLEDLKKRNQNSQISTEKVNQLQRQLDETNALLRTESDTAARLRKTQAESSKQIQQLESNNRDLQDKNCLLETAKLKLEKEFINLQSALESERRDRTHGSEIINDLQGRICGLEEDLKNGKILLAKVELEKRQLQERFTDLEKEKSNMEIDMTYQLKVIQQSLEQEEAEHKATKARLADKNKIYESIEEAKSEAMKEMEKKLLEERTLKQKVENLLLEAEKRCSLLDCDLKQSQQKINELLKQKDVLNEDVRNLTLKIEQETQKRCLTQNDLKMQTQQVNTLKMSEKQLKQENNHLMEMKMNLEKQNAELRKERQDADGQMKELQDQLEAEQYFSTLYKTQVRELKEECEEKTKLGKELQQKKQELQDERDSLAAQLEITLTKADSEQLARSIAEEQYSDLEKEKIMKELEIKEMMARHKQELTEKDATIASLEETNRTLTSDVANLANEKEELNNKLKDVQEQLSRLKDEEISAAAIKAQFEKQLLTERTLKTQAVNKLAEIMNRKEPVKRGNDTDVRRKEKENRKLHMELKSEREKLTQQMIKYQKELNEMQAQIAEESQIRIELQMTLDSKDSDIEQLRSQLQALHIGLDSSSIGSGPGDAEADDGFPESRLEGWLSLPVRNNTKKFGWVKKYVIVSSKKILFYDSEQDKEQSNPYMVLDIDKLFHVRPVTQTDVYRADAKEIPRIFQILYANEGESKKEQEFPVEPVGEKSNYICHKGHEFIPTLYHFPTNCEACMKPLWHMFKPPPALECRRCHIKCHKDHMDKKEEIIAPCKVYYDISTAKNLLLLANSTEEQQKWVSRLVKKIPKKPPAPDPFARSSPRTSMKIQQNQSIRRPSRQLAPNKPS

[12] = target: T3, Serine/threonine-protein kinase TBK1 (Homo sapiens) (UniProt Q9UHD2); assay: Inhibition of human TBK1 at 500 nM by HotSpot assay relative to control
T3 sequence (whole entry): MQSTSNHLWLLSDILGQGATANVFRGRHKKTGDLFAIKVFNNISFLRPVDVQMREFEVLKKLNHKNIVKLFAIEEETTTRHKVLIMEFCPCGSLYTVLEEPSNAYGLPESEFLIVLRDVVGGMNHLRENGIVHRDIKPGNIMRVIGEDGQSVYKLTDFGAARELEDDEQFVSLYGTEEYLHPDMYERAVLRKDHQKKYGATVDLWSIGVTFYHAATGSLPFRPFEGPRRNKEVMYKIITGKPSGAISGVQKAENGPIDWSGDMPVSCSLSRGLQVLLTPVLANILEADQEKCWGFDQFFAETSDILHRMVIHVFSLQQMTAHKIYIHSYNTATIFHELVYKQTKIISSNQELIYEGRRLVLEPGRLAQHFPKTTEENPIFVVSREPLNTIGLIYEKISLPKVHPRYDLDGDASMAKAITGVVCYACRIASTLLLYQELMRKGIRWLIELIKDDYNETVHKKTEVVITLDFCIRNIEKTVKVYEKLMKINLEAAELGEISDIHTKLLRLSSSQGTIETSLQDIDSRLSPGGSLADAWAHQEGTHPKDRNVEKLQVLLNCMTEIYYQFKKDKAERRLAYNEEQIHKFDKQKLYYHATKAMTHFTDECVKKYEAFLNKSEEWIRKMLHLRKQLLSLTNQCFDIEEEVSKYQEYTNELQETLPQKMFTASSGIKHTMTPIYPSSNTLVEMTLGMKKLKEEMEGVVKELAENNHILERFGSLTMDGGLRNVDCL

Chain of Activated CDC42 kinase 1 (Homo sapiens) (Q07912 whole entry, looked up): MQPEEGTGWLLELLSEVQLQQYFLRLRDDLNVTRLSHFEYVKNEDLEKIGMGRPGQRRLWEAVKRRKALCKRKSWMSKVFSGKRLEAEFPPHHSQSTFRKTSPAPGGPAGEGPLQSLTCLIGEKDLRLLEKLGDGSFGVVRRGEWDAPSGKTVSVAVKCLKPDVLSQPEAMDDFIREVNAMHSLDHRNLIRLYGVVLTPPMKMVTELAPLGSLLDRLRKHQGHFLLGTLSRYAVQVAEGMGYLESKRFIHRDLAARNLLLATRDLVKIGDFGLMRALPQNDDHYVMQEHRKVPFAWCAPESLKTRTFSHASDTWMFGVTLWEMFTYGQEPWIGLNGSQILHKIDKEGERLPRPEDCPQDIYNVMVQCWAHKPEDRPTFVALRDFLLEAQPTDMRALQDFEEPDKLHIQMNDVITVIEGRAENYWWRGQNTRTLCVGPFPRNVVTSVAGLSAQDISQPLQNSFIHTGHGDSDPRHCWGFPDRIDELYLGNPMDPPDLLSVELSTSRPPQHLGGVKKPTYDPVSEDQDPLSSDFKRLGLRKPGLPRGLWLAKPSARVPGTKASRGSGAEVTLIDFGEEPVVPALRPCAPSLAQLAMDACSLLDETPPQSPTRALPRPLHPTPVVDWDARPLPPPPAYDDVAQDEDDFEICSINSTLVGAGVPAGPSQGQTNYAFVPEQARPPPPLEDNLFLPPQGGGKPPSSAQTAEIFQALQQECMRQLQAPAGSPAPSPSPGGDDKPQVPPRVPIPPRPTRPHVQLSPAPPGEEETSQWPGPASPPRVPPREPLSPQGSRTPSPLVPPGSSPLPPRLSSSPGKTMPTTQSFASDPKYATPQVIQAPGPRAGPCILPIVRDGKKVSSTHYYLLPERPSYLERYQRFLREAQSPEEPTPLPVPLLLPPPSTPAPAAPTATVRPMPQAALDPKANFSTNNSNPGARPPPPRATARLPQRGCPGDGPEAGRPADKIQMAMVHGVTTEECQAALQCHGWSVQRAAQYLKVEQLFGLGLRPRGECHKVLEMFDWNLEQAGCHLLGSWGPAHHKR

| Structure (SMILES) | inhibition [1] [%] | inhibition [2] [%] | inhibition [3] [%] | inhibition [4] [%] | inhibition [5] [%] | inhibition [6] [%] | inhibition [7] [%] | inhibition [8] [%] | inhibition [9] [%] | inhibition [10] [%] | inhibition [11] [%] | inhibition [12] [%] |
| --- | --- | --- | --- | --- | --- | --- | --- | --- | --- | --- | --- | --- |
| Oc1n[nH]c2nnc(-c3c(-c4ccccc4)nn4ccccc34)cc12 | 8.98 | 6.43 | 1.57 | -0.91 | -0.49 | -2.3 | -3.97 | 7.2 | 0.66 | -0.85 | 0.7 | -4.04 |
| Nc1n[nH]c2nnc(-c3c(-c4ccccc4)nn4ccccc34)cc12 | 17.3 | 15.6 | 10.8 | 1.69 | 4.93 | 25.4 | 4.69 | 8.08 | -0.39 | 1.8 | 10.4 | -0.37 |
